Laboratory results: ChEMBL document CHEMBL1201862, “PubChem BioAssay data set” (2004)
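Protocol summary: plate cells (96-well), add compound at 5 concentrations, incubate 48 h, interpolate endpoints linearly. GI50: concentration for 50% inhibition of growth.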 Active and inactive are the calls of the source. Cut-off read from the data, not from the text of the source: active = GI50 up to about 1.1 µM and inactive = higher.

Legend:
Assay in all cases: NCI anticancer screen, dose series, 48 h
786-0 = tested on: 786-0
A549 = tested on: A549
ACHN = tested on: ACHN
CAKI-1 = tested on: CAKI-1
COLO 205 = tested on: COLO 205
HCT-15 = tested on: HCT-15
HL-60 = tested on: HL-60
IGROV-1 = tested on: IGROV-1
K562 = tested on: K562
KM12 = tested on: KM12
MOLT-4 = tested on: MOLT-4
NCI-H460 = tested on: NCI-H460
SF-268 = tested on: SF-268
SK-OV-3 = tested on: SK-OV-3
SW-620 = tested on: SW-620
UO-31 = tested on: UO-31
HOP-62 = tested on: HOP-62

SMILES | GI50 (786-0) | GI50 (A549) | GI50 (ACHN) | GI50 (CAKI-1) | GI50 (COLO 205) | GI50 (HCT-15) | GI50 (HL-60) | GI50 (IGROV-1) | GI50 (K562) | GI50 (KM12) | GI50 (MOLT-4) | GI50 (NCI-H460) | GI50 (SF-268) | GI50 (SK-OV-3) | GI50 (SW-620) | GI50 (UO-31) | GI50 (HOP-62)
COC(=O)c1c(-c2ccccc2)sc(-c2cccc3ccccc23)c1C(=O)OC | > 100 µM (inactive) | > 100 µM (inactive) | > 100 µM (inactive) | > 100 µM (inactive) | > 100 µM (inactive) | > 100 µM | > 100 µM (inactive) | > 100 µM (inactive) | > 100 µM (inactive) | > 100 µM (inactive) | > 100 µM (inactive) | > 100 µM (inactive) | > 100 µM (inactive) | > 100 µM (inactive) | > 100 µM (inactive) | 58.2 µM (inactive) | 
Cc1c(/C=N/NC(=O)c2cc(Br)cc(Br)c2O)c(=O)n(-c2ccccc2)n1C | 92 µM (inactive) | > 100 µM (inactive) | 51.1 µM (inactive) | 25.2 µM (inactive) | 61.2 µM (inactive) | 39.1 µM | 2.49 µM (inactive) | 1.22 µM (inactive) | 51.4 µM (inactive) | 33.8 µM (inactive) | 56.1 µM (inactive) | 39.2 µM (inactive) | 83.8 µM (inactive) | > 100 µM (inactive) | 53.7 µM (inactive) | 70.5 µM (inactive) | 52.7 µM (inactive)
COC1=CC(=O)C2C(C1=O)[C@@H]1c3ccccc3OC(C)(C)[C@H]21 (stereo partly drawn) | 19.1 µM (inactive) | 70 µM (inactive) | 14.2 µM (inactive) | 16.4 µM (inactive) | 19.2 µM (inactive) | 19.9 µM | 16.4 µM (inactive) | > 10 µM (inactive) | 19 µM (inactive) | 68.1 µM (inactive) | 10.1 µM (inactive) | 60.5 µM (inactive) | 29.6 µM (inactive) | 90.4 µM (inactive) | 23.6 µM (inactive) | 15.2 µM (inactive) | > 100 µM (inactive)
NC(=O)C(=Cc1ccc(CP(=O)(O)O)cc1)C(N)=O | > 100 µM (inactive) | > 100 µM (inactive) | > 100 µM (inactive) | > 100 µM (inactive) | > 100 µM (inactive) | > 100 µM |  | > 100 µM (inactive) | > 100 µM (inactive) | > 100 µM (inactive) | > 100 µM (inactive) | > 100 µM (inactive) |  | > 100 µM (inactive) | > 100 µM (inactive) | > 100 µM (inactive) | > 100 µM (inactive)
O=C(CC1C(=O)Nc2ccccc2S1(=O)=O)Nc1cccc(Cl)c1 (stereo not drawn) | 14.1 µM (inactive) | 20 µM (inactive) | 16.9 µM (inactive) | 21.1 µM (inactive) |  | 15.5 µM | 18.5 µM (inactive) | 18.9 µM (inactive) | 17.8 µM (inactive) |  | 11.9 µM (inactive) | 16.7 µM (inactive) | 16.2 µM (inactive) |  | 17.7 µM (inactive) | 16.6 µM (inactive) | 
O=C(O)CCSC(=O)Nc1ccc(/N=N/c2ccccc2)cc1 | > 100 µM (inactive) | > 100 µM (inactive) | 43.6 µM (inactive) | > 100 µM (inactive) | > 100 µM (inactive) | > 100 µM | 36.5 µM (inactive) | 92.9 µM (inactive) | 80.5 µM (inactive) | > 100 µM (inactive) | 30.2 µM (inactive) | > 100 µM (inactive) | > 100 µM (inactive) | > 100 µM (inactive) | > 100 µM (inactive) | 55.3 µM (inactive) | > 100 µM (inactive)
CCOC(=O)C1=C(O)C(=O)c2cc(C)ccc2C1=O | > 100 µM (inactive) | 39.4 µM (inactive) | > 100 µM (inactive) | > 100 µM (inactive) | 49.8 µM (inactive) | 77.8 µM | > 100 µM (inactive) | > 100 µM (inactive) | > 100 µM (inactive) | > 100 µM (inactive) | > 100 µM (inactive) | > 100 µM (inactive) | > 100 µM (inactive) | > 100 µM (inactive) | > 100 µM (inactive) | > 100 µM (inactive) | 63.4 µM (inactive)
Cc1c(N2CCOCC2)nc2ccc(Cl)cc2c1-c1ccccc1 | 95.9 µM (inactive) | 43.8 µM (inactive) | 69 µM (inactive) | 76.4 µM (inactive) | > 100 µM (inactive) | 42.6 µM | 34 µM (inactive) | > 100 µM (inactive) | 31.6 µM (inactive) | 87.9 µM (inactive) | 21.8 µM (inactive) | 58.3 µM (inactive) | 80.2 µM (inactive) | > 100 µM (inactive) | 66.2 µM (inactive) | > 100 µM (inactive) | > 100 µM (inactive)
CCOP(=O)(OCC)/C(C#N)=C\c1ccc(OC(C)=O)cc1 | > 100 µM (inactive) | > 100 µM (inactive) | > 100 µM (inactive) | > 100 µM (inactive) | > 100 µM (inactive) | > 100 µM | > 100 µM (inactive) | > 100 µM (inactive) | > 100 µM (inactive) | > 100 µM (inactive) | > 100 µM (inactive) | > 100 µM (inactive) | > 66.2 µM (inactive) | > 100 µM (inactive) | > 100 µM (inactive) | > 100 µM (inactive) | > 100 µM (inactive)
COC(=O)/C(C#N)=C(\N)C(Cl)(Cl)Cl | 4.11 µM (inactive) | 3.33 µM (inactive) | 2.37 µM (inactive) | 5.4 µM (inactive) | 2.32 µM (inactive) | 2.2 µM | 0.319 µM (active) |  | 0.442 µM (active) | 4.32 µM (inactive) | 0.379 µM (active) | 4.33 µM (inactive) | 3.92 µM (inactive) | 1.81 µM (inactive) | 0.456 µM (active) | 27.1 µM (inactive) | 16.1 µM (inactive)
CC1OC(OC2CCCc3c(O)c4c(c(O)c32)C(=O)c2ccccc2C4=O)CC(N)C1O (stereo not drawn) | 1.29 µM (inactive) | 1.62 µM (inactive) | 1.88 µM (inactive) | 1.43 µM (inactive) | 1.62 µM (inactive) |  | 1.75 µM (inactive) | 1.69 µM (inactive) | 1.01 µM (active) | 1.58 µM (inactive) | 0.652 µM (active) | 1.43 µM (inactive) | 1.69 µM (inactive) | 1.15 µM (inactive) | 1.33 µM (inactive) | 1.73 µM (inactive) | 1.57 µM (inactive)
CCCOP1(=O)C=CC(Cl)=C(C)C1 (stereo not drawn) | 27.7 µM (inactive) | > 54.3 µM (inactive) | 24.9 µM (inactive) | 32.4 µM (inactive) | 18.4 µM (inactive) | 16.8 µM | 7.53 µM (inactive) | 97.7 µM (inactive) | 12 µM (inactive) | 20.8 µM (inactive) | 10.9 µM (inactive) | 50.7 µM (inactive) | 46.6 µM (inactive) | > 100 µM (inactive) | 19.3 µM (inactive) | 81.7 µM (inactive) | > 100 µM (inactive)
CCCN1CN(C(C(=O)N[C@@H]2C(=O)N3C2SC(C)(C)C3C(=O)O)c2ccccc2)CSC1=S (stereo partly drawn) | > 100 µM (inactive) | > 100 µM (inactive) | > 100 µM (inactive) | > 100 µM (inactive) | 23.6 µM (inactive) | 80.5 µM | 48 µM (inactive) | > 100 µM (inactive) | 41.6 µM (inactive) | > 100 µM (inactive) | > 100 µM (inactive) | > 100 µM (inactive) | > 100 µM (inactive) | > 100 µM (inactive) | 16.4 µM (inactive) | > 100 µM (inactive) | > 100 µM (inactive)
CCOc1ccc(/C=C/C(=O)c2sc(NNC(C)=O)nc2C)cc1 | > 100 µM (inactive) | > 100 µM (inactive) | > 100 µM (inactive) | > 100 µM (inactive) | > 100 µM (inactive) | > 100 µM | > 100 µM (inactive) | > 100 µM (inactive) | > 100 µM (inactive) | > 100 µM (inactive) | > 100 µM (inactive) | > 100 µM (inactive) | > 100 µM (inactive) | > 100 µM (inactive) | > 100 µM (inactive) | > 100 µM (inactive) | > 100 µM (inactive)
COc1nc2nccc-2c2occn12 | > 100 µM (inactive) | > 100 µM (inactive) | > 100 µM (inactive) | > 100 µM (inactive) | > 100 µM (inactive) | > 100 µM |  | > 100 µM (inactive) | > 100 µM (inactive) | > 100 µM (inactive) | > 100 µM (inactive) | > 100 µM (inactive) | > 100 µM (inactive) | > 100 µM (inactive) | > 100 µM (inactive) | > 100 µM (inactive) | > 100 µM (inactive)
O=C1O[B-](c2ccccc2)(c2ccccc2)[NH2+]C1CS (stereo not drawn) | 21.4 µM (inactive) | 92.3 µM (inactive) | 36.7 µM (inactive) | 35.6 µM (inactive) | 33.4 µM (inactive) | 36 µM | 23.9 µM (inactive) | 78 µM (inactive) | 23.9 µM (inactive) | 31.8 µM (inactive) | 25.4 µM (inactive) | 66.1 µM (inactive) | 96.4 µM (inactive) | > 100 µM (inactive) | 24.5 µM (inactive) | 52.2 µM (inactive) | > 100 µM (inactive)
COc1ccc2cc3[n+](cc2c1O)CCc1cc2c(cc1-3)OCO2 [BERBERRUBINE CHLORIDE] | > 100 µM (inactive) | 96.6 µM (inactive) | 79.8 µM (inactive) |  | > 100 µM (inactive) | > 100 µM | > 100 µM (inactive) | > 100 µM (inactive) | > 100 µM (inactive) | > 100 µM (inactive) | 52.8 µM (inactive) | 54 µM (inactive) | > 100 µM (inactive) | > 100 µM (inactive) | 92.9 µM (inactive) | > 100 µM (inactive) | > 100 µM (inactive)
